This note sets out measurements from patent US20160208002A1, “Compositions Associated with and Methods of Managing Neutrophil Movement” (priority 2013, published 2016).

Structures are written as SMILES.

The subject of this test is C57/BL6 mice treated with bleomycin. Put plainly: bleomycin-treated mice, cells in lung sections after BAL. It is filed as in vivo. The settings on record: 0.1 mg/kg intraperitoneal daily, day 3 after bleomycin, FIG. 5B. How it is done:
The successful aspiration of bleomycin into the lungs was confirmed by listening for the crackling noise heard after the aspiration. 24 hours following bleomycin aspiration (day 1), mice were treated daily with intraperitoneal injections of 50 microliters of PBS containing 2 microliters of 1 mg/ml of compound 1 (ChemBridge Corporation, San Diego, Calif.) (0.1 mg/kg) dissolved in DMSO (SigmaAldrich, St. Louis, Mo.) or an equal volume of PBS containing 2 microliters of DMSO. All animals were used in accordance with rules published by the National Institutes of Health and with a protocol approved by the Texas A&M University Institutional Animal Care and Use Committee. Mice were weighed daily, and euthanized using CO2 following NIH guidelines at day 3 after bleomycin aspiration. There were no injections on day 3. […] The cells from the first BAL collection were collected by centrifugation at 500×g for 10 minutes. The BAL pellets were resuspended in the secondary and tertiary BAL fluid and the combined cells were collected by centrifugation at 500×g for 5 minutes. The cells were resuspended in 500 microliters of 4% (w/v) BSA-PBS and counted with a hemacytometer. 100 microliters of diluted cells were then aliquoted into cytospin funnels and were then spun onto glass slides (Superfrost plus white slides, VWR) at 400×g for 5 minutes using a cytospin centrifuge (Shandon, Cheshire, England). These cells were then air dried, and stained with anti-mouse Ly6G (Biolegend) to detect neutrophils, anti-mouse CD11b (Biolegend) to detect granulocytes, monocytes, and macrophages, anti-mouse CD11c (MBL International) to detect alveolar macrophages and dendritic cells, or anti-mouse CD45 (Biolegend) to detect leukocytes. For all slides, non-specific; binding was blocked by incubation in PBS containing 4% BSA for 60 minutes. Slides were then incubated with 5 microgram/ml primary antibodies in 4% BSA-PBS for 60 minutes. Primary antibodies were detected with biotinylated mouse anti-rat antibody (Jackson ImmunoResearch, West Grove, Pa.). All secondary antibodies were used at 2.5 microgram/ml in 4% BSA-PBS for 30 minutes. Biotinylated antibodies were detected by a 1/500 dilution of ExtrAvidin alkaline phosphatase (Vector Laboratories, Burlingame, Calif.) in 4% BSA-PBS for 30 minutes. Staining was developed with the Vector Red Alkaline Phosphatase Kit (Vector Laboratories) for 4 minutes following the manufacturer's protocol. […] After washing, the biotinylated antibodies were detected by streptavidin-alkaline phosphatase kit (Vector Laboratories) following the manufacturer's protocol.

For `CCC(=O)Nc1nc(C)c(-c2csc(Nc3ccc(N(C)C)cc3)n2)s1` [Compound 1], the “CD11b-positive inflammatory macrophages in lung sections” value is reported as “no effect”. Further, where the note is “versus drug vehicle”, the “CD11c-positive macrophages in lung sections” value is listed as “significant increase”, the “CD206-positive cells in lung sections” value is listed as “significant increase” and the “number of Ly6G-positive neutrophils in lung sections” value is given as “significant decrease”.
